Data reported in patent US20240181068A1, “SELECTIVE NEUTRAL PH INHIBITOR OF CATHEPSIN B” (The Regents of the University of California, priority 2021, published 2024).

Assays:
[1] = target: T1, cathepsin B in SHSY5Y human neuroblastoma cell homogenate (Homo sapiens, UniProt P07858); assay: Cathepsin B activity in neuroblastoma cell homogenates in presence of inhibitors; format: biochemical; conditions: inhibitor 1 μM, Z-Arg-Arg-AMC substrate, pH 5.5
T1 construct: endogenous in cells; host or cells: SH-SY5Y human neuroblastoma cells
Protocol: (§1) Cathepsin B in human neuroblastoma cells treated with inhibitors. Neuroblastoma cells (human SHSY5Y) were grown in media consisting of 50% MEMalpha, 50% F12-K, 10% heat-inactivated FBS at 37° C. in an atmosphere of 95% air and 5% CO2. Firstly, cell homogenates were prepared by collection of cells in 0.32 M sucrose and freeze-thawing. Secondly, cells were incubated with Z-Arg-Lys-AOMK or CA-074Me for 6 hours at 37° C., and washed 3 times in phosphate-buffered saline and homogenates were prepared in 0.32 M sucrose with freeze-thawing. CA-074Me is a methyl ester form of the active CA-074 selective inhibitor of cathepsin B (70); CA-074Me penetrates the cell and is converted by intracellular esterases to CA-074.
(§2) Cathepsin B activity in the homogenates were monitored with Z-Arg-Arg-AMC substrate (60 μM) with buffer conditions of 40 mM citrate-phosphate, pH 5.5, 5 mM DTT, 1 mM EDTA, 100 mM NaCl, and 1.2% DMSO, followed by incubation at 37° C. for 30 minutes and reading of AMC fluorescence. CA-074-senstive activity was monitored to indicate cathepsin B activity, since CA-074 is a selective inhibitor of this enzyme (70). Protein content was measured in homogenates with the DC protein assay kit. Cathepsin B specific activity was calculated as nmol AMC/μg/min, and reported as the mean±SD (with analyses for statistical significance, p<0.05 by student's t-test).

cathepsin C = target: T2, cathepsin C (Homo sapiens, UniProt P53634); assay: Specificity of inhibitors: cathepsin C (Gly-Arg-AMC substrate); format: biochemical
T2 construct: purchased R&D Systems 1071-CY-010
Protocol: (§3) Specificity of inhibitors for other cysteine cathepsin proteases. The effects of Z-Arg-Lys-AOMK and Z-Glu-Lys-AOMK on cathepsin V, L, K, S, X, H and C activities were assessed. IC50 values were calculated at pH 4.6 and pH 7.2 conditions, consisting of 40 mM citrate phosphate, 1 mM EDTA, 100 mM NaCl, and 5 mM DTT. The inhibitor concentrations ranged from 16.38 μM to 256 nM with 2-fold serial dilutions. […] Cathepsin V (0.04 ng/μL), cathepsin L (0.03 ng/μL), cathepsin K (0.10 ng/μL), cathepsin S (0.20 ng/uL) were assayed with 40 μM Z-Phe-Arg-AMC. Cathepsin X (0.20 ng/uL), cathepsin C (0.51 ng/uL) and cathepsin H (0.1 ng/μL) were assayed with 40 μM of MCA-Arg-Pro-Pro-Gly-Phe-Ser-Ala-Phe-Lys(Dnp)OH (SEQ ID NO: 2), Gly-Arg-AMC, and Arg-AMC, respectively. Activation of pro-cathepsin H to cathepsin H was conducted by incubation of cathepsin H (4.4 ng/μL) with cathepsin L (1.1 ng/μL) at RT for 2 hrs in activation buffer (20 mM citrate phosphate pH 6.0, 100 mM NaCl, and 5 mM DTT). Cathepsin C (13.78 ng/μL) was activated by incubation with cathepsin L (3.4 ng/μL) at RT for one hr in activation buffer (20 mM citrate phosphate, pH 6.0, 100 mM NaCl, 5 mM DTT). […] For all assays containing peptide-AMC substrates the fluorescent microplate reader settings were the same as outlined above for cathepsin B. For the cathepsin X assay, the plate reader was set to excitation 320 nm, emission 400 nm, gain 105, top optics and read height 1 mm. To convert RFU/s to picomol/min, 10 μM to 0.005 μM (2-fold serial dilution) of MCA-Arg-Pro-Pro-Gly-Phe-Ser-Ala-Phe-Lys(Dnp)OH (SEQ ID NO: 2) was fully hydrolyzed with excess cathepsin X and a standard curve was generated using the total fluorescence values calculated at each concentration.

[2] = target: T3, cathepsin B in human neuroblastoma cells (SHSY5Y) (Homo sapiens, UniProt P07858); assay: Neuroblastoma cells incubated with inhibitors, then cathepsin B assay; format: cell-based
T3 construct: endogenous in cells; host or cells: SH-SY5Y human neuroblastoma cells
Protocol: as §1, §2

cathepsin B = target: T4, cathepsin B (Homo sapiens, UniProt P07858); assay: Irreversible mechanism of inhibitors (pre-incubation, dilution, activity); format: biochemical; conditions: pH 7.2
T4 construct: purchased R&D Systems 953-CY-010
Protocol: Irreversible mechanism of inhibitors. The irreversible or reversible mechanism of cathepsin B inhibition was assessed for Z-Arg-Lys-AOMK and Z-Glu-Lys-AOMK inhibitors. At pH 7.2, cathepsin B was incubated with 190 nM Z-Arg-Lys-AOMK and 4.99 μM Z-Glu-Lys-AOMK for 15 min in pH 7.2 assay buffer and the assay was performed as described above for pH 4.6. Proteolytic activity was monitored for 2 hr. At pH 4.6, cathepsin B (activated, 3.7 ng/μL) was incubated with 4.24 μM Z-Arg-Lys-AOMK and 3.48 μM Z-Glu-Lys-AOMK for 15 min in 40 mM citrate phosphate pH 4.6, 1 mM EDTA, 100 mM NaCl, and 5 mM DTT; a vehicle control contained 2.5% DMSO. Each reaction was then diluted 100-fold in assay buffer such that the final assay composition was 0.04 ng/μL cathepsin B, 40 μM Z-Phe-Arg-AMC, and an inhibitor concentration of 1/10th the IC50 value.

cathepsin V = target: T5, cathepsin V (Homo sapiens, UniProt O60911); assay: Specificity of inhibitors: cathepsin V (Z-Phe-Arg-AMC substrate); format: biochemical
T5 construct: purchased R&D Systems 1080-CY-010
Protocol: as §3

cathepsin S = target: T6, cathepsin S (Homo sapiens, UniProt P25774); assay: Specificity of inhibitors: cathepsin S (Z-Phe-Arg-AMC substrate); format: biochemical
T6 construct: purchased R&D Systems 1183-CY-010
Protocol: as §3

T5 sequence (O60911 114-334): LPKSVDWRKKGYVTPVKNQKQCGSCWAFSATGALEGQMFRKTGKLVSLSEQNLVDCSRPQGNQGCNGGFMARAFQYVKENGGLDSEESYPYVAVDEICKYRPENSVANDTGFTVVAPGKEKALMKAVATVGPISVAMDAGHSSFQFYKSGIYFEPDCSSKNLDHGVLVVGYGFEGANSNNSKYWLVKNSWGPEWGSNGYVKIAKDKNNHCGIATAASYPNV
T2 sequence (P53634 25-134 limits assumed): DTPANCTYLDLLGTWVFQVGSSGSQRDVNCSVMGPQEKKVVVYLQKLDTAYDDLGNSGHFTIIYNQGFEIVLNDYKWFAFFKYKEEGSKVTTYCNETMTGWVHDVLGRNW
T2 sequence (P53634 231-394 limits assumed): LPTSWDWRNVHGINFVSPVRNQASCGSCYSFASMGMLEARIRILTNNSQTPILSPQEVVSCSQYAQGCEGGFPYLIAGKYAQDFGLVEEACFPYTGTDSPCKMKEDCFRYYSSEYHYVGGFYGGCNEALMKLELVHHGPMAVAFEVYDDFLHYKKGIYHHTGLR
T2 sequence (P53634 395-463 limits assumed): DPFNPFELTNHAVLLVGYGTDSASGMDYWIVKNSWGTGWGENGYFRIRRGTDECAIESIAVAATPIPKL
T6 sequence (P25774 115-331): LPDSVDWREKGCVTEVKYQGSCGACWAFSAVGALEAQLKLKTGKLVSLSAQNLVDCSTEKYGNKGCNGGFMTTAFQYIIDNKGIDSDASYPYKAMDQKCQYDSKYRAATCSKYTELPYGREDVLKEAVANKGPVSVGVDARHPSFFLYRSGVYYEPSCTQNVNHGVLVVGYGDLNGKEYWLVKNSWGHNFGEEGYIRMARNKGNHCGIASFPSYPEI

## Cc1cccc(C)c1C(=O)OCC(=O)C(CCCCN)NC(=O)C(CCCNC(=N)N)NC(=O)OCc1ccccc1 (stereo not drawn) [Z-Arg-Lys-AOMK]
[1]
  inhibition of proteolytic (cathepsin B) activity in cell lysate: completely inhibited
Cathepsin C; cathepsin C, pH 4.6
  IC50: > 16000 nM
Cathepsin C; cathepsin C, pH 4.6, 16,000 nM inhibitor
  inhibition at 16 µM: 6%
Cathepsin C; cathepsin C, pH 7.2
  IC50: 850 nM
Cathepsin C; pH 4.6, inhibitor at 16 μM
  inhibition of cathepsin C: minimal inhibition
Cathepsin C; pH 7.2, from IC50
  fold more potent for cathepsin B than cathepsin C: 43 fold
[2]; cells incubated with 50 μM inhibitor for 6 hrs, washed, homogenate assayed with Z-Arg-Arg-AMC
  inhibition of cellular cathepsin B activity: completely inhibited
[2]; neuroblastoma cells, 50 μM, 6 hrs
  cell permeability: cell permeable
Cathepsin B
  cathepsin B activity after pre-incubation and dilution of inhibitor: no cathepsin B activity
Cathepsin V; cathepsin V, pH 4.6
  IC50: > 16000 nM
Cathepsin V; cathepsin V, pH 4.6, 16,000 nM inhibitor
  inhibition at 16 µM: 63%
Cathepsin V; cathepsin V, pH 7.2
  IC50: 440 nM
Cathepsin V; pH 4.6, inhibitor at 16 μM
  inhibition of cathepsin V: minimal inhibition
Cathepsin V; pH 7.2, from IC50
  fold more potent for cathepsin B than cathepsin V: 22 fold
Cathepsin S; cathepsin S, pH 4.6
  IC50: > 16000 nM
Cathepsin S; cathepsin S, pH 4.6, 16,000 nM inhibitor
  inhibition at 16 µM: 13%
Cathepsin S; pH 4.6, inhibitor at 16 μM
  inhibition of cathepsin S: minimal inhibition
Cathepsin S; pH 7.2, from IC50
  fold more potent for cathepsin B than cathepsin S: 110 fold
